Literature values as cited in patent publication US20240082176A1 (Productos Farmaceuticos, S.A. DE C.V., priority 2017, published 2024).

Columns and labels:
[1] = in vivo
[2] = in vivo; remark: listed apart in the source
[3] = tested on: citric acid-induced cough

SMILES: Nc1c(Br)cc(Br)cc1CN[C@H]1CC[C@H](O)CC1 [ambroxol, trans-4-[(2-amino-3,5-dibromophenyl)methylamino] cyclohexane-1-ol]
- renal clearance as share of total clearance [1]: 8%
- terminal elimination half-life [1]: 10 h

SMILES: OC[C@@H](O)CN1CCN(c2ccccc2)CC1 [levodropropizine]
- plasma protein binding (plasma protein): 11-14%
- oral bioavailability (estimated): greater than 75%
- half-life t1/2 (in vivo): 2 h

SMILES: OCC(O)CN1CCN(c2ccccc2)CC1 (racemic) [dropropizine, (R, S)-3-(4-phenylpiperazin-1-yl) propane-1,2-diol]
- elimination half-life [2]: 4 h
- time after administration at which cough suppression is reached ([3]; after the administration of the drug): 1 h
- period for which the antitussive effect persists ([3]; human, in vivo): 6 h
- antitussive activity compared with codeine (cough; vs codeine): comparable
- antitussive activity compared with its levo enantiomer (cough; vs levodropropizine): comparable
